Measurements as given in patent US11905249B2, “Covalent inhibitors of equine encephalitis virus” (priority 2021, dated 2024).
Where two headings read alike, the source gives them in different places.

Experiments:
VEEV (IC-SH3) [1] = assay: microbe, parasite or virus in culture; assay type: cell-based; conditions: Venezuelan equine encephalitis virus, Vero, read-out: EC50 (Vero)
VEEV (IC-SH3) [2] = assay: microbe, parasite or virus in culture; assay type: cell-based; conditions: Venezuelan equine encephalitis virus, HeLa, read-out: EC50 (HeLa)
VEEV nsP2 protease = VEEV nsP2 protease (Venezuelan equine encephalitis virus, UniProt P27282); assay: biochemical; conditions: read-out: estimated percentage inhibition of VEEV nsP2
VEEV TC83 [3] = assay: microbe, parasite or virus in culture; assay type: cell-based, Venezuelan equine encephalitis virus
VEEV TC83 [4] = assay: microbe, parasite or virus in culture; assay type: cell-based, Venezuelan equine encephalitis virus; remark: listed apart in the source
[5] = Venezuelan equine encephalitis virus, N2a, in Mus musculus, read-out: Mouse Neuro-2a (TC83) EC50 (μM)
[6] = Venezuelan equine encephalitis virus, read-out: Human BE(2)-M17 (TC83) EC50 (μM)

VEEV nsP2 protease, sequence (P27282 1003-1322 limits assumed): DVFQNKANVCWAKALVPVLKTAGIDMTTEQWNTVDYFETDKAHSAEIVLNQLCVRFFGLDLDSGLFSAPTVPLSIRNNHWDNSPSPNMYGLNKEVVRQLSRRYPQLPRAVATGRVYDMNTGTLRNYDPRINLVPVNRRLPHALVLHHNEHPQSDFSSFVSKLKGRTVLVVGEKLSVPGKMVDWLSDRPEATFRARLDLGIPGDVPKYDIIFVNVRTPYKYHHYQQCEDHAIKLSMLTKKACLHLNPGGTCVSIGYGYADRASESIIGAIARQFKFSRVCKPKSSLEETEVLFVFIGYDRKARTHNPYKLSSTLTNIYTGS

Row | Compound | EC50 (VEEV TC83 [3]; [5]) [µM] | Mouse Neuro-2a (TC83) CC50 (Neuro-2a cells; mouse) [µM] | EC50 (VEEV TC83 [4]; [6]) [µM] | Human BE(2)-M17 (TC83) CC50 (BE(2)-M17 cells; human) [µM] | further results
1 | COC(=O)/C=C/CNC(=O)c1cccc2c1NC(C)(C)C=C2C [Compound 1] | – | – | – | – | EC50 (VEEV (IC-SH3) [1]): 0.55 µM; EC50 (VEEV (IC-SH3) [2]): 6.48 µM
2 | C[C@@H]1CC(C)(C)Nc2c(C(=O)NC/C=C/S(C)(=O)=O)cccc21 [Compound 11] | – | – | – | – | inhibition at 0.9 µM (VEEV nsP2 protease): ~39%
3 | CC1=CC(C)(C)Nc2c(C(=O)N[C@@H](C)/C=C/S(C)(=O)=O)cccc21 [Compound 12] | – | – | – | – | inhibition at 0.9 µM (VEEV nsP2 protease): ~59%
4 | C[C@@H]1CC(C)(C)Nc2c(C(=O)N[C@@H](C)/C=C/S(C)(=O)=O)cccc21 [Compound 13] | – | – | – | – | inhibition at 0.9 µM (VEEV nsP2 protease): ~71%
5 | COC(=O)/C=C/CNC(=O)c1cccc2cccnc12 [Compound 17] | > 25 | >25.00 | > 25 | >25.00 | –
6 | COC(=O)/C=C/CNC(=O)c1cccc2ccc(C)nc12 [Compound 18] | > 25 | >25.00 | > 25 | >25.00 | –
7 | COC(=O)/C=C/CNC(=O)c1ccccc1Nc1ccccc1 [Compound 19] | > 25 | >25.00 | > 25 | >25.00 | –
8 | COC(=O)/C=C/CNC(=O)c1ccccc1Nc1cccc(Cl)c1Cl [Compound 20] | > 25 | 1.52 | > 25 | >25.00 | –
9 | COC(=O)/C=C/CNC(=O)c1c[nH]c2ccc(C)cc12 [Compound 21] | > 25 | >25.00 | > 25 | >25.00 | –
10 | COC(=O)/C=C/CNC(=O)c1cccc2nccnc12 [Compound 22] | > 25 | >25.00 | > 25 | >25.00 | –
11 | COC(=O)/C=C/CNC(=O)c1ccccc1Nc1c(Cl)ccc(C)c1Cl [Compound 23] | > 25 | 23.53 | > 25 | >25.00 | –
12 | COC(=O)/C=C/[C@H](C)NC(=O)c1cccc2c1NC(C)(C)C=C2C [Compound 24] | > 25 | >25.00 | > 25 | >25.00 | –
13 | COC(=O)/C=C/[C@H](C)NC(=O)c1cccc2c1NC(C)(C)C[C@H]2C [Compound 25] | > 25 | >25.00 | > 25 | >25.00 | –
14 | COC(=O)/C=C/C(C)(C)NC(=O)c1cccc2c1NC(C)(C)C=C2C [Compound 26] | > 25 | >25.00 | > 25 | >25.00 | –
15 | COC(=O)/C=C/C(C)(C)NC(=O)c1cccc2c1NC(C)(C)C[C@H]2C [Compound 27] | > 25 | >25.00 | > 25 | >25.00 | –
16 | COC(=O)/C=C/[C@H](Cc1ccccc1)NC(=O)c1c[nH]c2ccc(Cl)cc12 [Compound 28] | > 50 | >50.00 | > 50 | >50.00 | –

Row | Compound | EC50 (VEEV TC83 [3]; [5]) [µM] | Mouse Neuro-2a (TC83) CC50 (Neuro-2a cells; mouse) [µM] | EC50 (VEEV TC83 [4]; [6]) [µM] | Human BE(2)-M17 (TC83) CC50 (BE(2)-M17 cells; human) [µM] | further results
17 | COC(=O)/C=C/[C@H](Cc1ccccc1)NC(=O)c1cccc2c1NC(C)(C)C=C2C [Compound 29] | > 50 | >50.00 | > 50 | >50.00 | –
18 | COC(=O)/C=C/[C@H](Cc1ccccc1)NC(=O)c1cc(C)cc2c1NC(C)(C)C=C2C [Compound 30] | > 50 | >50.00 | > 50 | >50.00 | –
19 | Cc1ccc2cccc(C(=O)NC/C=C/S(C)(=O)=O)c2n1 [Compound 31] | > 25 | >25.00 | > 25 | >25.00 | –
20 | CS(=O)(=O)/C=C/CNC(=O)c1ccccc1Nc1ccccc1 [Compound 32] | > 25 | >25.00 | > 25 | 27.14 | –
21 | CS(=O)(=O)/C=C/CNC(=O)c1ccccc1Nc1cccc(Cl)c1Cl [Compound 33] | > 25 | 15.48 | > 25 | 5.86 | –
22 | CS(=O)(=O)/C=C/CNC(=O)c1cccc2nccnc12 [Compound 34] | > 25 | >25.00 | > 25 | >25.00 | –
23 | Cc1ccc(Cl)c(Nc2ccccc2C(=O)NC/C=C/S(C)(=O)=O)c1Cl [Compound 35] | > 25 | >25.00 | 18.2 ± 0.93 | 14.50 | –
24 | CS(=O)(=O)/C=C/[C@H](Cc1ccccc1)NC(=O)c1cccc2cccnc12 [Compound 36] | > 25 | >25.00 | > 25 | >25.00 | –
25 | CC1=CC(C)(C)Nc2c(C(=O)N[C@H](/C=C/S(C)(=O)=O)Cc3ccccc3)cc(C)cc21 [Compound 37] | > 50 | >50.00 | 31.7 ± 16.7 | >50.00 | –
26 | CC1=CC(C)(C)Nc2c(C(=O)NC(C)(C)/C=C/S(C)(=O)=O)cccc21 [Compound 38] | > 25 | >25.00 | > 25 | >25.00 | –
27 | C[C@@H]1CC(C)(C)Nc2c(C(=O)NC(C)(C)/C=C/S(C)(=O)=O)cccc21 [Compound 39] | > 25 | >25.00 | > 25 | >25.00 | –
28 | COc1ccc2[nH]cc(C(=O)N[C@H](/C=C/S(=O)(=O)c3ccccc3)Cc3ccccc3)c2c1 [Compound 40] | > 25 | >25.00 | 23.9 ± 5.33 | >25.00 | –
29 | CC1=CC(C)(C)Nc2c(C(=O)N[C@H](/C=C/S(=O)(=O)c3ccccc3)Cc3ccccc3)cccc21 [Compound 41] | > 25 | >25.00 | > 25 | >25.00 | –
30 | C[C@@H]1CC(C)(C)Nc2c(C(=O)N[C@H](/C=C/S(=O)(=O)c3ccccc3)Cc3ccccc3)cccc21 [Compound 42] | > 25 | >25.00 | > 25 | >25.00 | –
31 | O=C(N[C@H](/C=C/S(=O)(=O)c1ccccc1)Cc1ccccc1)c1cccc2c1NCCC2 [Compound 43] | > 25 | >25.00 | > 25 | >25.00 | –
32 | CN1CCN(C)C(=Nc2ccc([N+](=O)[O-])cc2C(=O)Nc2ccccc2)C1 [ML336, reference compound] | – | – | – | – | EC50 (VEEV TC83 [3]; read-out: Mouse Neuro-2a (TC83) EC50): 0.02 ± 0.01 µM; Mouse Neuro-2a (TC83) CC50 (Neuro-2a cells): >2.5 µM; EC50 (VEEV TC83 [4]; read-out: Human BE(2)-M17 (TC83) EC50): 0.01 µM; Human BE(2)-M17 (TC83) CC50 (BE(2)-M17 cells): >2.50 µM
